Experimental data from patent publication US20220175768A1, “FGFR TYROSINE KINASE INHIBITORS FOR THE TREATMENT OF UROTHELIAL CARCINOMA” (Janssen Pharmaceutica NV, priority 2019, published 2022).

[1] = 6 mg continuous, regimen 2 (n = 78)
[2] = 8 mg continuous, Regimen 3 (n = 99)
[3] = 8 mg continuous, selected regimen 3 (n = 99)

Method: Study treatment was administered on 28-day cycles. Prior to interim analysis 1, there were 2 treatment regimens. Patients were randomized 1:1 to 28-day cycles to the following 2 regimens until a regimen was selected for further study: Regimen 1 (10 mg once daily intermittent (7 days on/7 days); Regimen 2 (6 mg once daily continuous). Randomization was stratified according to performance status (0 to 1 vs. 2), hemoglobin value (<10 vs. ≥10 g per dl), FGFR alteration type (mutation vs. fusion), prior treatment status (chemotherapy-resistant vs. chemotherapy naïve), and disease distribution (presence or absence of visceral [liver, lung, bone] metastases). Starting dose selection was based on phase 1 efficacy and tolerability.
Thus, after interim analysis, this became a single-arm study. […] Treatment continued until disease progression or unacceptable adverse event(s) per investigator.
All objective responses required confirmation by an additional investigator assessment within 4 to 6 weeks of first assessment. Disease evaluations for regimen 3 were also performed by an independent radiographic review committee. […] Safety was evaluated based on clinical laboratory tests, physical exams, electrocardiograms, and ophthalmology examinations. Adverse events and abnormalities were assessed by investigator and graded per NCI CTCAE v.4.0
Prophylactic measures were taken to minimize risk of common adverse events related to FGFR inhibition. To reduce risk of hyperphosphatemia, a low-phosphate diet was recommended for all patients (600 to 800 mg of dietary phosphate intake per day). To reduce the risk of skin effects, the application of alcohol-free emollient moisturizing cream and avoidance of unnecessary exposure to sunlight, soap, perfumed products, and hot baths was recommended. Patients were asked to keep their fingers and toes clean and nails trimmed to reduce risk of nail effects.
Additional ophthalmology examinations were performed if clinically indicated.

COc1cc(OC)cc(N(CCNC(C)C)c2ccc3ncc(-c4cnn(C)c4)nc3c2)c1 [erdafitinib, N-(3,5-dimethoxy-phenyl)-N′-(1-methylethyl)-N-[3-(1-methyl-1H-pyrazol-4-yl)quinoxalin-6-yl]ethane-1,2-diamine]
Treatment-related adverse event: Asthenia, Any grade [1]: 11 (14) no. (%) | Treatment-related adverse event: Asthenia, Grade 1 [1]: 3 (4) no. (%) | Treatment-related adverse event: Asthenia, Grade 2 [1]: 4 (5) no. (%) | Treatment-related adverse event: Asthenia, Grade ≥3 [1]: 4 (5) no. (%) | Treatment-related adverse event: Conjunctivitis, Any grade [1]: 2 (3) no. (%) | Treatment-related adverse event: Conjunctivitis, Grade 1 [1]: 2 (3) no. (%) | Treatment-related adverse event: Conjunctivitis, Grade 2 [1]: 0 no. (%) | Treatment-related adverse event: Conjunctivitis, Grade ≥3 [1]: 0 no. (%) | Treatment-related adverse event: Decreased appetite, Any grade [1]: 18 (23) no. (%) | Treatment-related adverse event: Decreased appetite, Grade 1 [1]: 7 (9) no. (%) | Treatment-related adverse event: Decreased appetite, Grade 2 [1]: 9 (12) no. (%) | Treatment-related adverse event: Decreased appetite, Grade ≥3 [1]: 2 (3) no. (%) | Treatment-related adverse event: Diarrhea, Any grade [1]: 29 (37) no. (%) | Treatment-related adverse event: Diarrhea, Grade 1 [1]: 16 (21) no. (%) | Treatment-related adverse event: Diarrhea, Grade 2 [1]: 13 (17) no. (%) | Treatment-related adverse event: Diarrhea, Grade ≥3 [1]: 0 no. (%) | Treatment-related adverse event: Dry mouth, Any grade [1]: 31 (40) no. (%) | Treatment-related adverse event: Dry mouth, Grade 1 [1]: 23 (30) no. (%) | Treatment-related adverse event: Dry mouth, Grade 2 [1]: 6 (8) no. (%) | Treatment-related adverse event: Dry mouth, Grade ≥3 [1]: 2 (3) no. (%) | Treatment-related adverse event: Dry skin, Any grade [1]: 16 (21) no. (%) | Treatment-related adverse event: Dry skin, Grade 1 [1]: 8 (10) no. (%) | Treatment-related adverse event: Dry skin, Grade 2 [1]: 8 (10) no. (%) | Treatment-related adverse event: Dry skin, Grade ≥3 [1]: 0 no. (%) | Treatment-related adverse event: Dysgeusia, Any grade [1]: 10 (13) no. (%) | Treatment-related adverse event: Dysgeusia, Grade 1 [1]: 6 (8) no. (%) | Treatment-related adverse event: Dysgeusia, Grade 2 [1]: 4 (5) no. (%) | Treatment-related adverse event: Dysgeusia, Grade ≥3 [1]: 0 no. (%) | Treatment-related adverse event: Fatigue, Any grade [1]: 12 (15) no. (%) | Treatment-related adverse event: Fatigue, Grade 1 [1]: 5 (6) no. (%) | Treatment-related adverse event: Fatigue, Grade 2 [1]: 6 (8) no. (%) | Treatment-related adverse event: Fatigue, Grade ≥3 [1]: 1 (1) no. (%) | Treatment-related adverse event: Hand-foot syndrome, Any grade [1]: 12 (15) no. (%) | Treatment-related adverse event: Hand-foot syndrome, Grade 1 [1]: 4 (5) no. (%) | Treatment-related adverse event: Hand-foot syndrome, Grade 2 [1]: 8 (10) no. (%) | Treatment-related adverse event: Hand-foot syndrome, Grade ≥3 [1]: 0 no. (%) | Treatment-related adverse event: Hyperphosphatemia, Any grade [1]: 49 (63) no. (%) | Treatment-related adverse event: Hyperphosphatemia, Grade 1 [1]: 41 (53) no. (%) | Treatment-related adverse event: Hyperphosphatemia, Grade 2 [1]: 8 (10) no. (%) | Treatment-related adverse event: Hyperphosphatemia, Grade ≥3 [1]: 0 no. (%) | Treatment-related adverse event: Lacrimation increased, Any grade [1]: 12 (15) no. (%) | Treatment-related adverse event: Lacrimation increased, Grade 1 [1]: 9 (12) no. (%) | Treatment-related adverse event: Lacrimation increased, Grade 2 [1]: 3 (4) no. (%) | Treatment-related adverse event: Lacrimation increased, Grade ≥3 [1]: 0 no. (%) | Treatment-related adverse event: Nausea, Any grade [1]: 6 (8) no. (%) | Treatment-related adverse event: Nausea, Grade 1 [1]: 4 (5) no. (%) | Treatment-related adverse event: Nausea, Grade 2 [1]: 2 (3) no. (%) | Treatment-related adverse event: Nausea, Grade ≥3 [1]: 0 no. (%) | Treatment-related adverse event: Onycholysis, Any grade [1]: 13 (17) no. (%) | Treatment-related adverse event: Onycholysis, Grade 1 [1]: 2 (3) no. (%) | Treatment-related adverse event: Onycholysis, Grade 2 [1]: 6 (8) no. (%) | Treatment-related adverse event: Onycholysis, Grade ≥3 [1]: 5 (6) no. (%) | Treatment-related adverse event: Onychomadesis, Any grade [1]: 8 (10) no. (%) | Treatment-related adverse event: Onychomadesis, Grade 1 [1]: 2 (3) no. (%) | Treatment-related adverse event: Onychomadesis, Grade 2 [1]: 6 (8) no. (%) | Treatment-related adverse event: Onychomadesis, Grade ≥3 [1]: 0 no. (%) | Treatment-related adverse event: Paronychia, Any grade [1]: 11 (14) no. (%) | Treatment-related adverse event: Paronychia, Grade 1 [1]: 1 (1) no. (%) | Treatment-related adverse event: Paronychia, Grade 2 [1]: 10 (13) no. (%) | Treatment-related adverse event: Paronychia, Grade ≥3 [1]: 0 no. (%) | Treatment-related adverse event: Retinal detachment, Any grade [1]: 8 (10) no. (%) | Treatment-related adverse event: Retinal detachment, Grade 1 [1]: 5 (6) no. (%) | Treatment-related adverse event: Retinal detachment, Grade 2 [1]: 3 (4) no. (%) | Treatment-related adverse event: Retinal detachment, Grade ≥3 [1]: 0 no. (%) | Treatment-related adverse event: Stomatitis, Any grade [1]: 33 (42) no. (%) | Treatment-related adverse event: Stomatitis, Grade 1 [1]: 13 (17) no. (%) | Treatment-related adverse event: Stomatitis, Grade 2 [1]: 13 (17) no. (%) | Treatment-related adverse event: Stomatitis, Grade ≥3 [1]: 7 (9) no. (%) | Treatment-related adverse event: Vision blurred, Any grade [1]: 5 (6) no. (%) | Treatment-related adverse event: Vision blurred, Grade 1 [1]: 3 (4) no. (%) | Treatment-related adverse event: Vision blurred, Grade 2 [1]: 1 (1) no. (%) | Treatment-related adverse event: Vision blurred, Grade ≥3 [1]: 1 (1) no. (%) | Treatment-related adverse event: Alopecia, Grade 3 (8 mg continuous (n = 99)): 0 no. | Treatment-related adverse event: Decreased appetite, Grade 3 (8 mg continuous (n = 99)): 0 no. | Treatment-related adverse event: Dry mouth, Grade 3 (8 mg continuous (n = 99)): 0 no. | Treatment-related adverse event: Dry skin, Grade 3 (8 mg continuous (n = 99)): 0 no. | Treatment-related adverse event: Lacrimation increased, Grade 3 (8 mg continuous (n = 99)): 0 no. | Treatment-related adverse event: Vision blurred, Grade 3 (8 mg continuous (n = 99)): 0 no. | Treatment-related adverse event: Weight decreased, Grade 3 (8 mg continuous (n = 99)): 0 no. | Treatment-related adverse event of special interest or clinical importance: Arrhythmia-related events, Any grade [2]: 0 no. | Treatment-related adverse event of special interest or clinical importance: Arrhythmia-related events, Grade ≥3 [2]: 0 no. | Patients with Abdominal pain, Any grade [3]: 8 (8) no. (%) | Patients with Abdominal pain, Grade 1 [3]: 5 (5) no. (%) | Patients with Abdominal pain, Grade 2 [3]: 2 (2) no. (%) | Patients with Abdominal pain, Grade ≥3 [3]: 1 (1) no. (%) | Patients with Alanine aminotransferase increased, Any grade [3]: 17 (17) no. (%) | Patients with Alanine aminotransferase increased, Grade 1 [3]: 13 (13) no. (%) | Patients with Alanine aminotransferase increased, Grade 2 [3]: 2 (2) no. (%) | Patients with Alanine aminotransferase increased, Grade ≥3 [3]: 2 (2) no. (%) | Patients with Alopecia, Any grade [3]: 29 (29) no. (%) | Patients with Alopecia, Grade 1 [3]: 23 (23) no. (%) | Patients with Alopecia, Grade 2 [3]: 6 (6) no. (%) | Patients with Alopecia, Grade ≥3 [3]: 0 no. (%) | Patients with Anemia, Any grade [3]: 20 (20) no. (%) | Patients with Anemia, Grade 1 [3]: 9 (9) no. (%) | Patients with Anemia, Grade 2 [3]: 7 (7) no. (%) | Patients with Anemia, Grade ≥3 [3]: 4 (4) no. (%) | Patients with Arthralgia, Any grade [3]: 8 (8) no. (%) | Patients with Arthralgia, Grade 1 [3]: 5 (5) no. (%) | Patients with Arthralgia, Grade 2 [3]: 3 (3) no. (%) | Patients with Arthralgia, Grade ≥3 [3]: 0 no. (%) | Patients with Aspartate aminotransferase increased, Any grade [3]: 10 (10) no. (%) | Patients with Aspartate aminotransferase increased, Grade 1 [3]: 8 (8) no. (%) | Patients with Aspartate aminotransferase increased, Grade 2 [3]: 2 (2) no. (%) | Patients with Aspartate aminotransferase increased, Grade ≥3 [3]: 0 no. (%) | Patients with Asthenia, Any grade [3]: 20 (20) no. (%) | Patients with Asthenia, Grade 1 [3]: 2 (2) no. (%) | Patients with Asthenia, Grade 2 [3]: 11 (11) no. (%) | Patients with Asthenia, Grade ≥3 [3]: 7 (7) no. (%) | Patients with Back pain, Any grade [3]: 5 (5) no. (%) | Patients with Back pain, Grade 1 [3]: 4 (4) no. (%) | Patients with Back pain, Grade 2 [3]: 1 (1) no. (%) | Patients with Back pain, Grade ≥3 [3]: 0 no. (%) | Patients with Blood creatinine increased, Any grade [3]: 10 (10) no. (%) | Patients with Blood creatinine increased, Grade 1 [3]: 5 (5) no. (%) | Patients with Blood creatinine increased, Grade 2 [3]: 5 (5) no. (%) | Patients with Blood creatinine increased, Grade ≥3 [3]: 0 no. (%) | Patients with Conjunctivitis, Any grade [3]: 13 (13) no. (%) | Patients with Conjunctivitis, Grade 1 [3]: 6 (6) no. (%) | Patients with Conjunctivitis, Grade 2 [3]: 7 (7) no. (%) | Patients with Conjunctivitis, Grade ≥3 [3]: 0 no. (%) | Patients with Constipation, Any grade [3]: 28 (28) no. (%) | Patients with Constipation, Grade 1 [3]: 19 (19) no. (%) | Patients with Constipation, Grade 2 [3]: 8 (8) no. (%) | Patients with Constipation, Grade ≥3 [3]: 1 (1) no. (%) | Patients with Decreased appetite, Any grade [3]: 38 (38) no. (%) | Patients with Decreased appetite, Grade 1 [3]: 18 (18) no. (%) | Patients with Decreased appetite, Grade 2 [3]: 20 (20) no. (%) | Patients with Decreased appetite, Grade ≥3 [3]: 0 no. (%) | Patients with Diarrhea, Any grade [3]: 50 (51) no. (%) | Patients with Diarrhea, Grade 1 [3]: 31 (31) no. (%) | Patients with Diarrhea, Grade 2 [3]: 15 (15) no. (%) | Patients with Diarrhea, Grade ≥3 [3]: 4 (4) no. (%) | Patients with Dry eye, Any grade [3]: 19 (19) no. (%) | Patients with Dry eye, Grade 1 [3]: 14 (14) no. (%) | Patients with Dry eye, Grade 2 [3]: 4 (4) no. (%) | Patients with Dry eye, Grade ≥3 [3]: 1 (1) no. (%) | Patients with Dry mouth, Any grade [3]: 45 (46) no. (%) | Patients with Dry mouth, Grade 1 [3]: 34 (34) no. (%) | Patients with Dry mouth, Grade 2 [3]: 11 (11) no. (%) | Patients with Dry mouth, Grade ≥3 [3]: 0 no. (%) | Patients with Dry skin, Any grade [3]: 32 (32) no. (%) | Patients with Dry skin, Grade 1 [3]: 24 (24) no. (%) | Patients with Dry skin, Grade 2 [3]: 8 (8) no. (%) | Patients with Dry skin, Grade ≥3 [3]: 0 no. (%) | Patients with Dysgeusia, Any grade [3]: 37 (37) no. (%) | Patients with Dysgeusia, Grade 1 [3]: 23 (23) no. (%) | Patients with Dysgeusia, Grade 2 [3]: 13 (13) no. (%) | Patients with Dysgeusia, Grade ≥3 [3]: 1 (1) no. (%) | Patients with Dyspepsia, Any grade [3]: 11 (11) no. (%) | Patients with Dyspepsia, Grade 1 [3]: 10 (10) no. (%) | Patients with Dyspepsia, Grade 2 [3]: 1 (1) no. (%) | Patients with Dyspepsia, Grade ≥3 [3]: 0 no. (%) | Patients with Dyspnea, Any grade [3]: 8 (8) no. (%) | Patients with Dyspnea, Grade 1 [3]: 4 (4) no. (%) | Patients with Dyspnea, Grade 2 [3]: 2 (2) no. (%) | Patients with Dyspnea, Grade ≥3 [3]: 2 (2) no. (%) | Patients with Fatigue, Any grade [3]: 32 (32) no. (%) | Patients with Fatigue, Grade 1 [3]: 12 (12) no. (%) | Patients with Fatigue, Grade 2 [3]: 18 (18) no. (%) | Patients with Fatigue, Grade ≥3 [3]: 2 (2) no. (%) | Patients with Hand-foot syndrome, Any grade [3]: 23 (23) no. (%) | Patients with Hand-foot syndrome, Grade 1 [3]: 6 (6) no. (%) | Patients with Hand-foot syndrome, Grade 2 [3]: 12 (12) no. (%) | Patients with Hand-foot syndrome, Grade ≥3 [3]: 5 (5) no. (%) | Patients with Hematuria, Any grade [3]: 10 (10) no. (%) | Patients with Hematuria, Grade 1 [3]: 7 (7) no. (%) | Patients with Hematuria, Grade 2 [3]: 1 (1) no. (%) | Patients with Hematuria, Grade ≥3 [3]: 2 (2) no. (%) | Patients with Hyperphosphatemia, Any grade [3]: 76 (77) no. (%) | Patients with Hyperphosphatemia, Grade 1 [3]: 53 (54) no. (%) | Patients with Hyperphosphatemia, Grade 2 [3]: 21 (21) no. (%)
